# Experimental data: patent US20250099420A1, “SMALL MOLECULE MODULATORS OF GPR139 COMPLEX” (University of Florida Research Foundation, Incorporated, priority 2022, published 2025)
# Where two headings read alike, the source gives them in different places.
# Assays:
# parental HEK cells = test: HEK parental Agonist Counterscreen Assay (non-transfected cells); assay type: cell-based; details: for Averaged Max % Response (±St. Dev.): activity relative to known control
# Description: The high control for the agonist counterscreen was Forskolin not acetylcholine.
# GPR139 = molecular target: T1, GPR139 (Homo sapiens, UniProt Q6DWJ6); test: GPR139 Agonist titration / agonist counterscreen assay (calcium detection, HEK-GPR139 cells); assay type: cell-based; set-up: expressed in transfected cells; host or cells: HEK Aequorin cells, Maxcyte transient transfection; details: GPR139 Agonist Activity; for EC50: read-out: EC50; for Averaged Max % Response (±St. Dev.): activity relative to known control
# T1 sequence (Q6DWJ6 1-353): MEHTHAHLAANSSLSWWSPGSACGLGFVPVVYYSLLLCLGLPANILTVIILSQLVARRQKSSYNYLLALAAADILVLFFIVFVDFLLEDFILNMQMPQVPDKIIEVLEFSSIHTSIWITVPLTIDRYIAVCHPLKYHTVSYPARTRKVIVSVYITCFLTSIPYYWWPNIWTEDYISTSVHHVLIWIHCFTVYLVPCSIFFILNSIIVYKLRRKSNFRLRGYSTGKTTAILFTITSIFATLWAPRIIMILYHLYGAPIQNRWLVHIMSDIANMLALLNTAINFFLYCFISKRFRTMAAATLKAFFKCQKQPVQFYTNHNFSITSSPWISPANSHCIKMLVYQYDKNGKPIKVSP
# Experimental: GPR activity was assessed using a calcium detection assay. […] Negative control samples were treated with DMSO. […] Intracellular calcium was measured using Calcium 5.
# [1] = HEK Agonist Activity section of Table 4 (parental HEK counterscreen)
# [2] = values printed in E-notation without unit
# [3] = Homo sapiens, HEK293, HEK Agonist Activity section of Table 4 (parental HEK counterscreen)
# [4] = Homo sapiens, HEK293, HEK Agonist Activity, parental non-transfected HEK cells
Lipophilic Efficiency (logD) (parental HEK cells; HEK Agonist Activity section),Lipophilic Efficiency (logP) (parental HEK cells; HEK Agonist Activity section),Efficiency Ligand (GPR139),Hill Slope (GPR139),Lipophilic Efficiency (logD) (GPR139),Lipophilic Efficiency (logP) (GPR139),EC50 (GPR139; HEK-GPR139 cells) [nM],Averaged Max % Response (±St. Dev.) (GPR139) [%],Lipophilic Efficiency (logD) (GPR139; based on logD),Lipophilic Efficiency (logP) (GPR139; based on logP),Hill Slope (GPR139; fitted dose-response curve),Efficiency Ligand (GPR139; ligand efficiency),EC50 (GPR139; [2]) [nM],Compound,EC50 (parental HEK cells; [1]) [nM],Averaged Max % Response (±St. Dev.) (parental HEK cells; HEK Agonist Activity section) [%],EC50 (parental HEK cells; [3]) [nM],also measured
2.20,2.20,,,,,,99.20 ± 4.08,4.23,4.23,0.78,0.48,132,Cc1ccc(SCC(=O)NNC(=O)c2cccs2)cc1 [SR-01000286062],> 14100,8.31 ± 5.73,,
,,,,,,,126.44 ± 4.55,5.48,5.47,,0.56,< 0.716,O=C(CSCc1ccc(Cl)cc1Cl)NNC(=O)c1ccccc1 [SR-01000295701],,,,"Lipophilic Efficiency (logD) (parental HEK cells; HEK Agonist Activity): 1.19; Lipophilic Efficiency (logP) (parental HEK cells; HEK Agonist Activity): 1.17; Averaged Max % Response (±St. Dev.) (parental HEK cells; HEK Agonist Activity): −4.01 ± 2.60%; EC50 (parental HEK cells; HEK Agonist Activity, parental non-transfected HEK cells): > 14100 nM"
3.56,3.55,0.35,1.48,4.77,4.76,857,96.78 ± 9.37,,,,,,O=C(CSCc1cccc2ccccc12)Nc1c[nH]c(=O)[nH]c1=O [SR-01000296110],> 14100,3.41 ± 3.54,,
0.78,0.78,0.38,0.74,1.36,1.36,3700,68.10 ± 8.73,,,,,,Cc1ccc(NC(=O)NCCCc2ccccc2)cc1 [SR-01000299370],,−5.05 ± 8.64,> 14100,
1.94,1.93,,,,,,93.20 ± 6.78,3.92,3.92,0.91,0.37,145,Cc1cc(C)c2c(CC(=O)NNC(=O)COc3ccccc3)coc2c1 [SR-01000301649],> 14100,14.38 ± 10.96,,
1.74,1.67,,,,,,94.36 ± 3.49,3.88,3.82,0.63,0.41,,Cc1ccc(NC(=O)NNC(=O)COc2ccc(Cl)cc2)c(C)c1 [SR-01000309617],,−3.26 ± 4.40,> 14400,

# Second part, the compound before the results:
Compound,Lipophilic Efficiency (logD) (parental HEK cells; HEK Agonist Activity section),Lipophilic Efficiency (logP) (parental HEK cells; HEK Agonist Activity section),Efficiency Ligand (GPR139),Hill Slope (GPR139),Lipophilic Efficiency (logD) (GPR139),Lipophilic Efficiency (logP) (GPR139),EC50 (GPR139; HEK-GPR139 cells) [nM],Averaged Max % Response (±St. Dev.) (GPR139) [%],Lipophilic Efficiency (logD) (GPR139; based on logD),Lipophilic Efficiency (logP) (GPR139; based on logP),Hill Slope (GPR139; fitted dose-response curve),Efficiency Ligand (GPR139; ligand efficiency),EC50 (GPR139; [2]) [nM],EC50 (parental HEK cells; [1]) [nM],Averaged Max % Response (±St. Dev.) (parental HEK cells; HEK Agonist Activity section) [%],EC50 (parental HEK cells; [3]) [nM],also measured
COc1ccc(CSc2nnc(-c3cccnc3)n2N)cc1 [SR-01000284323],3.34,3.34,0.41,0.57,4.90,4.90,386,94.97 ± 7.83,,,,,,> 14100,3.28 ± 6.64,,
O=C(CSc1ccc(Cl)cc1)NNC(=O)c1ccc([N+](=O)[O-])cc1 [SR-01000286858],2.09,2.08,0.38,0.60,3.68,3.67,366,111.41 ± 5.44,,,,,,,4.98 ± 9.07,> 14100,
O=c1cc(-c2ccccc2)[nH]c2nc(OCc3cccc([N+](=O)[O-])c3)nn12 [SR-01000289377],1.72,1.72,0.32,1.25,3.01,3.01,727,79.17 ± 5.74,,,,,,,−0.70 ± 7.45,> 14100,
Cc1c(Br)c([N+](=O)[O-])nn1CC(=O)NCCc1ccc(Cl)cc1 [SR-01000298170],,,,,,,,119.00 ± 5.31,4.08,4.08,0.27,0.46,31.6,,,,Lipophilic Efficiency (logD) (parental HEK cells; HEK Agonist Activity): 1.44; Lipophilic Efficiency (logP) (parental HEK cells; HEK Agonist Activity): 1.44; Averaged Max % Response (±St. Dev.) (parental HEK cells; HEK Agonist Activity): 10.66 ± 2.50%; EC50 (parental HEK cells; [4]): > 14100 nM
C=C(CCC)c1ccc(CCC2=NNC(c3ccccc3)N2C)cc1 (stereo not shown) [SR-01000299610],2.82,2.82,0.33,0.79,3.88,3.88,,71.34 ± 19.37,,,,,,,−12.89 ± 6.99,> 14100,
O=C(Cn1ccc([N+](=O)[O-])n1)NCCc1ccc(Cl)cc1 [SR-01000299915],,,,,,,,99.72 ± 18.10,5.86,5.86,1.13,0.55,5,,,,Lipophilic Efficiency (logD) (parental HEK cells; HEK Agonist Activity): 2.40; Lipophilic Efficiency (logP) (parental HEK cells; HEK Agonist Activity): 2.40; Averaged Max % Response (±St. Dev.) (parental HEK cells; HEK Agonist Activity): 2.39 ± 2.18%; EC50 (parental HEK cells; [4]): > 14100 nM
CC1=NNC(=O)C1CC(=O)N/N=C/c1c(Cl)cccc1Cl (stereo not shown) [SR-01000310664],3.00,3.00,0.41,0.70,4.32,4.32,672,89.42 ± 11.78,,,,,,> 14100,28.78 ± 5.42,,
